Reference: patent publication US12624019B2, “Indazole derivative, and preparation method therefor and use thereof” (Leadingtac Pharmaceutical (Shaoxing) Co., Ltd., priority 2020, dated 2026)

What was measured:
[1] = Pharmacokinetic study in mice; assay type: in vivo, SD mice
Experimental: The following experimental scheme was used to study the pharmacokinetic behavior of the compound of the present invention in mice and evaluate its pharmacokinetic characteristics.
Experimental scheme: 3 healthy SD mice, male, weighing […], were given 100 mg/kg compound by gavage with a volume of 10 mL/kg, prepared with […] (w/v). Before the test, they were fasted for 12 hours and freely drank water. Food was uniformly consumed 4 h after administration.
Three healthy SD mice, male, weighing […], were given 1 mg/kg compound intravenously with a volume of 5 mL/kg, prepared with 5% DMSO/15% solutol %80% PBS (w/v). Before the test, they were fasted for 12 hours and freely drank water. Food was uniformly consumed 4 h after administration.
0.1 mL of venous blood was taken through the submaxillary venous plexus of mice at 0.08 h, 0.25 h, 0.5 h, 1 h, 2 h, 4 h, 8 h, 24 h after gavage administration and 0.08 h, 0.25 h, 0.5 h, 1 h, 2 h, 4 h, 8 h, 24 h after intravenous administration, placed in a heparin test tube, centrifuged at 11000 rpm for 5 min, and plasma was separated, the concentration of compounds in plasma was determined by liquid chromatography-tandem mass spectrometry.

[2] = biological target: T1, IKZF1 (Homo sapiens, UniProt Q13422+Q96SW2); experiment: Degradation of IKZF1 in L363 cells by Western blot; assay type: cell-based; conditions: compound 1000 nM, 16 hours
T1 construct: endogenous in cells; host or cells: L363 cells
Experimental: The 24-well cell culture plate was inoculated with 0.95 mL L363 cells (Nanjing Co-bioer) per well with a cell density of 6×10^5 cells/well. The cell plate was placed in a 5% carbon dioxide incubator and cultured at 37° C. for 8 hours, then 50 μL of compound solution was added. The final concentration of the compound was 1000 nM. After continuing to culture for 16 hours, the cells were collected into a 1.5 mL centrifuge tube and centrifuged at 3000 rpm and 4° C. for 5 minutes. Cell precipitation was washed twice with 1×DPBS, resuspended cells were lysed with 100 μL lysate (cell lysate was Western and IP cell lysate (Beyotime), supplemented with 1 mM mixture of phenylmethylsulfonyl fluoride and protease inhibitor (Beyotime)), left on ice for 30 minutes, then centrifuged at 14000 g at 4° C. for 10 minutes, and the supernatant was taken to detect IKZF1 and IKZF3 protein level by Western blot.
The total protein concentration in the supernatant of cell lysis was determined by BCA protein quantitative kit (Tiangen). According to the concentration of total protein detected by BCA, the supernatant was adjusted to […] with PBS and 5×SDS-PAGE protein loading buffer (Beyotime), bathed in water at 100° C. for 10 minutes, then placed in ice bath for 5 minutes, centrifuged at 14000 g and 4° C. for 5 minutes, and then collected as WB loading sample. Prefabricated glue (KeyGEN) was used for protein electrophoresis with a loading amount of 10 μL (total protein 2 μg). After Tris-MOPS-SDS electrophoresis solution (Adamas), 120V constant pressure electrophoresis was performed. After electrophoresis, the protein on the adhesive strip was transferred to PVDF membrane with a constant current of […] for 50 minutes. After the membrane was transferred, the membrane was incubated in 5% bovine serum albumin solution for 2 hours at room temperature. After blocking, PVDF membranes were incubated with IKZF1 primary antibody (CST) and IKZF3 primary antibody (Abcam) overnight at 4°, the membranes were washed with TBST buffer (2.4 g Tris, 8.8 g NaCl, 1.5 mL Tween 20, pH adjusted to 7.4, constant volume to 1 L) for 30 minutes, incubated with secondary antibody (Abcam) for 2 hours at room temperature, finally incubated with Clarity Western ECL Substrate (BIO-RAD) for 5 minutes for luminescence development, chemiluminescence imaging system (Clinx, chemiScope 6200 Touch) was used for development and protein mapping photography. The protein map was analyzed by Clinx chemiluminescence analysis software for grayscale values. Using the formula: grayscale correction value=(target protein grayscale value/corresponding internal reference grayscale value)×10^3, the grayscale correction value of each sample was calculated. The degradation rate was calculated by comparing with the grayscale correction value of the control group.

[3] = male, SD, mouse, po, gavage administration 100 mg/kg, plasma

T1 sequence (Q13422 whole entry): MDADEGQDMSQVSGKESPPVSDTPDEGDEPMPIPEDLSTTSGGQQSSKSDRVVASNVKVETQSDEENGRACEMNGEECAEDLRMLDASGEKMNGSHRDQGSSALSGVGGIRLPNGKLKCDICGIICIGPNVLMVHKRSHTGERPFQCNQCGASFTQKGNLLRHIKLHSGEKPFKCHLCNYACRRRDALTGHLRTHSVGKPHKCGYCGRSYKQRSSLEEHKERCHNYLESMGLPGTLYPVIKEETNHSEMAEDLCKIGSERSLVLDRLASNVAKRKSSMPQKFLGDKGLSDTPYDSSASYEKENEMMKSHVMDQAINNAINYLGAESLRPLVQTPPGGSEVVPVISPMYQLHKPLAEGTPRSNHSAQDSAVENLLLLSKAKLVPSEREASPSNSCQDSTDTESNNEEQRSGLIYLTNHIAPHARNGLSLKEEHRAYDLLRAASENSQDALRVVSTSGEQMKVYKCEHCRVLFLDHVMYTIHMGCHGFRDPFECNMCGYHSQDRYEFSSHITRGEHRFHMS
T1 sequence (Q96SW2 whole entry): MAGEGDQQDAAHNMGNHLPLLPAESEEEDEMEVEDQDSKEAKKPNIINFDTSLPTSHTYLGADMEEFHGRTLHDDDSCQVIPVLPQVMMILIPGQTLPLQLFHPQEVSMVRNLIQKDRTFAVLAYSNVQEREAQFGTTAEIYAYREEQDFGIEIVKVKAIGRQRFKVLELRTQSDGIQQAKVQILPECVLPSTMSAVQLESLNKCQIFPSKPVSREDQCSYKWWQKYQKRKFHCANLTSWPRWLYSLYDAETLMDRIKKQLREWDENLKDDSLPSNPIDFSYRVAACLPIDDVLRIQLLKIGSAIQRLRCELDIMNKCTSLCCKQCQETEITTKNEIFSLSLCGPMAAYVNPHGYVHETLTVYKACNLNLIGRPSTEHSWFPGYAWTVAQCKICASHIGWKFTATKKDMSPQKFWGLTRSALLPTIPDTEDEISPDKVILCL
T1 sequence (Q16531 whole entry partner): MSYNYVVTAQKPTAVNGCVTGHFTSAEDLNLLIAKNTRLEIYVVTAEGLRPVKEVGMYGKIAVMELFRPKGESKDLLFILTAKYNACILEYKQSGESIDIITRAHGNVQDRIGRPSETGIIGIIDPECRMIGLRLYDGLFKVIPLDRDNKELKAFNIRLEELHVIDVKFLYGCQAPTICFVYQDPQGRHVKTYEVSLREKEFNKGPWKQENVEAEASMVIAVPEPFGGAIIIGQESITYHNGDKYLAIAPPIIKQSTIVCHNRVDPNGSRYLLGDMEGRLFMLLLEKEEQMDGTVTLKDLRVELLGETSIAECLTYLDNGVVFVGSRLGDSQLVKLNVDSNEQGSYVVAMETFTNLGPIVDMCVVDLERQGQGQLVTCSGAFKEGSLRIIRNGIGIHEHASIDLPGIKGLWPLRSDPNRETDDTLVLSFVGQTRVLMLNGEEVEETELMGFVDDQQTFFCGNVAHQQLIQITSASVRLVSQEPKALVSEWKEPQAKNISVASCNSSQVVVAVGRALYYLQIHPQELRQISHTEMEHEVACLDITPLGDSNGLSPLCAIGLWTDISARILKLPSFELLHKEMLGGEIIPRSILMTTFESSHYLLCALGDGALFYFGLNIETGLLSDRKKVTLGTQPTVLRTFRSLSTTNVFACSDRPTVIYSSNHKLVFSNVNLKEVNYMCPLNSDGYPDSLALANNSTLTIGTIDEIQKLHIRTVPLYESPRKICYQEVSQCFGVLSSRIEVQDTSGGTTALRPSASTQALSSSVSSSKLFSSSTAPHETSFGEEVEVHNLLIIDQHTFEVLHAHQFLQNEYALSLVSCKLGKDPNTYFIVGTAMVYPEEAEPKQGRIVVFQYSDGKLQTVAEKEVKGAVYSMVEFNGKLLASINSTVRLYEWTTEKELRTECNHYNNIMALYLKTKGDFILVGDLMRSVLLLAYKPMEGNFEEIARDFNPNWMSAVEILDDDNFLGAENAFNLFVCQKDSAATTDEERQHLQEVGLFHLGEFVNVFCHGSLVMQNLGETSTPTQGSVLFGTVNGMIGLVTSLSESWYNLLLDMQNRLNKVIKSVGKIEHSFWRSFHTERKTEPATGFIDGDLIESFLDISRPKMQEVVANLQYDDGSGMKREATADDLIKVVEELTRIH

## CC(C)(O)c1cc2nn(C3CCN(CCCC4CCN(c5ccc6c(c5)C(=O)N(C5CCC(=O)NC5=O)C6=O)CC4)CC3)cc2cc1NC(=O)c1cccc(C(F)(F)F)n1 (stereo not shown) [Example 6, N-(2-(1-(3-(1-(2-(2,6-dioxopiperidin-3-yl)-1,3-dioxoisoindolin-5-yl)piperidin-4-yl)propyl)piperidin-4-yl)-6-(2-hydroxyprop-2-yl)-2H-indazol-5-yl)-6-(trifluoromethyl) pyridinecarboxamide]
[1]; intravenous injection 1 mg/kg
  CL_pred: 6.7 mL/min/kg
  Vss_pred: 4.6 L/kg
[1]; male, SD, mouse, intravenous injection 1 mg/kg, plasma
  AUC(0-t): 2150 ng·h/mL
[1]; male, SD, mouse, plasma, po, gavage 100 mg/kg vs intravenous 1 mg/kg
  bioavailability: 14.2%
[1]; [3]
  AUC(0-t): 30500 ng·h/mL
  Cmax: 1860 ng/mL
[2]
  IKZF1 degradation rate (%): 26.7 ± 2.4%
